For orientation: LD50 means the dose at which mortality reaches 50%. A high value points to lower toxicity.

These results are taken from patent publication US20130172414A1, “PHARMACEUTICAL COMPOSITION COMPRISING LEVOCARNITINE AND DOBESILATE” (TIANJIN NANKAI SHARE PHARMACEUTICAL SCIENCE & TECHNOLOGY …, priority 2010, published 2013).

Data set [1] has as its system rats in chronic renal failure model. To be noted: cited from earlier work.
Another data set relates to mice. In words: Mice acute toxicity test (Example 7). To be noted: mice acute toxicity. From the text:
(§1) Toxicity Test According to the methods described in literatures (“Guiding principles for acute toxicity test of a chemical drug”, No. [H]GPT1-1, CENTER FOR DRUG EVALUATION, SFDA; Bojun Yuan et. al., “The Preclinical Safety Evaluation and Practice of New Drug”, Military Medical Science Press, 1997: 23-36[…] Bojun Yuan et. al., “Methods and Techniques for Drug ToxicologicalTest”, Chemical Industry Press, 2008: 200-210), the preparation of levocamitine and calcium dobesilate obtained from example 2 was tested for mice acute toxicity.

For data set [2], the system named is adenine-induced mice renal failure model. Briefly: Pharmacodynamic test, chronic renal failure model (Example 5). Type of data set: in vivo, SPF grade Kunming mice. The note with it: for Water content of renal tissue / blood urea nitrogen (BUN) / body weight after 4 weeks / renal index / serum creatinine (Scr): 350 mg/kg once per day for 4 weeks, n=10; for values of Scr and BUN as compared with the renal failure group: 350 mg/kg, 4 weeks. As to the method: Based on intergroup consistency principle, SPF grade Kunming mice (with a body weight of about 20 to 22 g, half male and half female) were randomly divided into 5 groups (n=10) with one of them as the control group. Except for control group, 300 mg/kg (20 ml/kg·d) of adenine was administrated given to mice once per day for successive 3 days by gavage, thereby to obtain adenine-induced mice renal failure model as described in the references (see for example Pingdong Zheng et. al, “The establishment of chronic renal failure animal model with adenine, Chinese Journal of Nephrology, 1989, 5(4): 342-344; Deyu Guo et. al., “The establishment of mice model with chronic renal insufficiency”, CHINESE JOURNAL OF LABORATORY ANIMAL SCIENCE, 2001, 11(3): 142-145; and Shuling Sun et. al, “The traditional Chinese medicinal intervention and pathological observations in mice chronic renal failure model”, ZHEJIANG JOURNAL OF INTEGRATED TRADITIONAL CHINESE AND WESTERN MEDICINE, 2002, 12(4): 221-222).
Thereafter, except for the control group, based on intergroup consistency principle, the remaining 4 groups were redivided randomly into 4 groups, renal failure group, levocarnitine (350 mg/kg) group, calcium dobesilate (350 mg/kg) group, as well as levocarnitine and calcium dobesilate group (350 mg/kg) (wherein the ratio of levocamitine and calcium dobesilate is 1:1). Except for the renal failure group, mice of each group were administrated at the given dosage once per day for successive 4 weeks. Then the data for the mice of each group such as body weight, blood urea nitrogen (BUN), serum creatinine (Scr), renal index and water content of renal tissue were determined.

The subject of another data set is ischemic/reperfused rat. The note with it: cited from earlier work.
The nature of data set [3]: Mice acute toxicity test (Example 7). The note with it: mouse, in vivo.
Source text: as §1

For the compound `O=S(=O)([O-])c1cc(O)ccc1O.O=S(=O)([O-])c1cc(O)ccc1O.[Ca+2]` [Calcium dobesilate, calcium dobesilate], in data set [1], the “content of thromboxane Az in the homogenate of renal cortex” value is “reduce notably”; the “level of Scr and BUN” value is “decreasing”. The compound further yielded an LD50 with mice of 10600 mg/kg. In addition, in data set [2], the “Water content of renal tissue” value is reported as 75.9 ± 1.8%, the “blood urea nitrogen (BUN)” value stood at 11.8 ± 7.0 mmol/L, the “body weight after 4 weeks” value was found to be 31.6 ± 4.6 g and the renal index turned out to be 7.2 ± 0.7. Besides, in data set [2], the “serum creatinine (Scr)” value was found to be 10.0 ± 9.2 µmol/L; the “values of Scr and BUN as compared with the renal failure group” value was “decreased”.

On to `C[N+](C)(C)C[C@H](O)CC(=O)[O-]` [Levocarnitine, (R)-3-carboxy-2-hydroxy-N,N,N-trimethyl-1-propanaminium hydroxide], for which, in the data set with ischemic/reperfused rat, the “content of malonaldehyde (MDA) in renal tissue” value is listed as “reduce”; the “content of reduced glutathione (GSH)” value is reported as “increase”; the “serum creatinine (Scr) and blood urea nitrogen (BUN)” value was “can reduce”. The compound also showed an LD50 in data set [3] of 19200 mg/kg. In addition, in data set [2], the “Water content of renal tissue” value came out at 76.0 ± 2.0%, the “blood urea nitrogen (BUN)” value was 9.7 ± 5.8 mmol/L, the “body weight after 4 weeks” value amounted to 32.3 ± 5.3 g and the renal index was 7.0 ± 1.3. Further, in data set [2], the “serum creatinine (Scr)” value was 21.6 ± 11.8 µmol/L; the “values of Scr and BUN as compared with the renal failure group” value is listed as “decreased”.
